“And” between values parts separate entries of the source, which are not always exact repeats. Equal entries are not always repeated. Where two headings read alike, the source gives them in different places. Blank lines part the entries; values can stand above or below the compound they belong to.
Legend:
B16 tumor = test: Response of B16 tumors to suboptimal cisplatin chemotherapy in WT and PHD2+/− mice; format: in vivo, mouse; conditions: for anti-tumor effect in PHD2+/− mice / anti-tumor effect in WT mice: B16 tumor
Experimental: […] TUMOR MODELS: 5 105 B16F10.9 melanoma and 105 Lewis lung carcinoma (LLC) cells were injected subcutaneously into the right flank or foot pad, respectively. […] Circulating tumor cells were scored on 1 ml of peripheral blood upon red blood cell lysis.
[…] […] The mice were sacrificed at defined time intervals after cell inoculation or when tumors reached a maximum size of 2 cm3.

[1] = system: Lewis Lung Carcinoma (LLC); test: Response of LLC tumors to suboptimal doxorubicin chemotherapy in WT and PHD2+/− mice; conditions: doxorubicin 2.5 mg/kg 3×/week
[2] = Cornea pocket assay with pellets containing VEGF or FGF-2; format: in vivo, mouse
From the text: We also performed cornea pocket assays and implanted pellets, containing VEGF or FGF-2, in endothelial PHD2Cre/+ mice.

[3] = cisplatin 2.5 mg/kg 3×/week, listed as Cisplatin
[4] = PHD2+/− hearts upon doxorubicin treatment
[5] = PHD2+/− hearts upon doxorubicin treatment, versus WT

Compound: N.N.[Cl][Pt][Cl] [cisplatin]
anti-tumor effect in PHD2+/− mice (B16 tumor; cisplatin 2.5 mg/kg 3×/week): effective | anti-tumor effect in PHD2+/− mice (B16 tumor; [3]): reduced the volume (A) and weight (B) of B16 tumor | anti-tumor effect in WT mice (B16 tumor; cisplatin 2.5 mg/kg 3×/week): does not kill B16 tumor cells | anti-tumor effect in WT mice (B16 tumor; [3]): not effective | tumor size, smaller in PHD2+/− than WT mice (B16 tumor; cisplatin 2.5 mg/kg 3×/week, B16 tumors, 11 days after initiation of chemotherapy): 60% | tumor apoptosis (active caspase 3) (B16 tumor; tumors implanted in PHD2+/− mice upon cisplatin treatment): increased | tumor proliferation (B16 tumor; tumors implanted in PHD2+/− mice upon cisplatin treatment, compared to WT): reduced

capillary perfusion [4]: preserved | oxidative stress (cardiac ROS) [4]: reduced | Brain Natriuretic Peptide (BNP) expression [5]: lower levels | interstitial fibrosis [5]: reduced interstitial fibrosis | capillary perfusion (WT hearts upon doxorubicin treatment): not preserved | ejection fraction (EF) (wild-type mice upon doxorubicin treatment): decreases
Compound: COc1cccc2c1C(=O)c1c(O)c3c(c(O)c1C2=O)C[C@@](O)(C(=O)CO)C[C@@H]3O[C@H]1C[C@H](N)[C@H](O)[C@H](C)O1 [doxorubicin]
cardiac hypertrophy (PHD1 and PHD3 deficient mice after 2 months of treatment): significant cardiac hypertrophy | ejection fraction (EF) (PHD2+/− mice upon doxorubicin treatment): maintain or preserve the baseline EF levels | cardiac damage (doxorubicin 2.5 mg/kg 3×/week for four weeks, PHD2+/− mice): protected against cardiac damage | anti-tumor effect in PHD2+/− mice [1]: responsive | anti-tumor effect in PHD2+/− mice ([1]; listed as Doxorubicin): reduced the volume of LLC (Lewis lung carcinoma) tumor | anti-tumor effect in WT mice ([1]; WT mice): not effective

Compound: FGF-2: growth factor implanted as pellet in cornea pocket assay
branching points per mm2 ([2]; PHD2Cre/+ mice, N=4): 580±87 per mm2 | vessel area ([2]; PHD2Cre/+ mice, N=4): 33.4±4% | branching points per mm2 ([2]; PHD2lox/+ mice, N=4): 511±48 per mm2

Compound: VEGF
vessel area ([2]; PHD2Cre/+ mice, N=4): 23.2±1.6% | vessel area ([2]; PHD2lox/+ mice, N=4): 27.7±2.3% | branching points per mm2 ([2]; mouse, in vivo): 387±52 per mm2 and 345±60 per mm2
